In ChEMBL document CHEMBL1671622, “Novel mutation in 23S rRNA that confers low-level resistance to clarithromycin in Helicobacter pylori” (2008):
≈ marks a conversion by molar mass, not a printed value.

Columns and labels:
Assay type in all cases: functional
Helicobacter pylori [1] = assay: Antimicrobial activity against Helicobacter pylori TS1776
Helicobacter pylori [2] = assay: Antimicrobial activity against Helicobacter pylori TF3
Helicobacter pylori [3] = assay: Antimicrobial activity against compound-resistant Helicobacter pylori harboring 23S rRNA mutant gene
Helicobacter pylori [4] = assay: Antimicrobial activity against Helicobacter pylori
Helicobacter pylori [5] = assay: Antimicrobial activity against Helicobacter pylori TF1
Helicobacter pylori [6] = assay: Antimicrobial activity against Helicobacter pylori TF4
Helicobacter pylori [7] = assay: Antimicrobial activity against Helicobacter pylori TF2
Helicobacter pylori [8] = assay: Antimicrobial activity against Helicobacter pylori S1900
Helicobacter pylori [9] = assay: Antimicrobial activity against Helicobacter pylori TS1900
Helicobacter pylori [10] = assay: Antimicrobial activity against clarithromycin-susceptible Helicobacter pylori ATCC 700392 transformant harboring 23S rRNA of Helicobacter pylori TS1900

Compound `CC[C@H]1OC(=O)[C@H](C)[C@@H](O[C@H]2C[C@@](C)(OC)[C@@H](O)[C@H](C)O2)[C@H](C)[C@@H](O[C@@H]2O[C@H](C)C[C@H](N(C)C)[C@H]2O)[C@](C)(OC)C[C@@H](C)C(=O)[C@H](C)[C@@H](O)[C@]1(C)O` [CLARITHROMYCIN] has an MIC (Helicobacter pylori [1]) of 0.5 mg/L (≈ 0.668 µM), an MIC (Helicobacter pylori [2]) of 1 mg/L (≈ 1.34 µM) and an MIC (Helicobacter pylori [3]) of 2 mg/L (≈ 2.67 µM). The MIC (Helicobacter pylori [4]) was ≥ 0.125 mg/L, the MIC (Helicobacter pylori [5]) was 0.5 mg/L (≈ 0.668 µM) and the MIC (Helicobacter pylori [6]) was 1 mg/L (≈ 1.34 µM). The MIC (Helicobacter pylori [7]) was 0.25 mg/L (≈ 0.334 µM), the MIC (Helicobacter pylori [8]) was 1 mg/L (≈ 1.34 µM) and the MIC (Helicobacter pylori [9]) was 1 mg/L (≈ 1.34 µM). The MIC (Helicobacter pylori [10]) was ≤ 0.008 mg/L.
